# Reference: patent publication US20070142363A1, “Novel diazabicyclonene derivatives and use thereof” (ACTELION PHARMACEUTICALS LTD, priority 2003, published 2007)
# Target: T1, human recombinant renin (Homo sapiens, UniProt P00797)
# T1 sequence (P00797 67-406): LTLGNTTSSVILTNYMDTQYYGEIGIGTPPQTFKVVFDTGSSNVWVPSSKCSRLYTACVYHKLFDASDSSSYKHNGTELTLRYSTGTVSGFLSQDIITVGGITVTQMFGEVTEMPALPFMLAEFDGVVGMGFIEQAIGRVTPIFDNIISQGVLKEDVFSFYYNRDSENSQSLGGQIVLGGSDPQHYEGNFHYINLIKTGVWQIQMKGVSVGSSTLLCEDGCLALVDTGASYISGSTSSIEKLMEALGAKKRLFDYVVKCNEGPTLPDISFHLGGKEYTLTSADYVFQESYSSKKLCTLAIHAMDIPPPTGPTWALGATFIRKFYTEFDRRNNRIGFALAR
# Assay: Inhibition of human recombinant renin (enzymatic in vitro assay, Ang I detected by EIA)
# Assay type: biochemical
# Settings: human recombinant renin 0.16 ng/mL, synthetic human angiotensin(1-14) 0.5 μM, 37° C. for 3 h
# Protocol: Inhibition of Human Recombinant Renin by the Compounds of the Invention The enzymatic in vitro assay was performed in 384-well polypropylene plates (Nunc). The assay buffer consisted of 10 mM PBS (Gibco BRL) including 1 mM EDTA and 0.1% BSA. The incubates were composed of 50 μL per well of an enzyme mix and 2.5 μL of renin inhibitors in DMSO. The enzyme mix was premixed at 4° C. and consists of the following components: • human recombinant renin (0.16 ng/mL) * synthetic human angiotensin(1-14) (0.5 μM) • hydroxyquinoline sulfate (1 mM) The mixtures were then incubated at 37° C. for 3 h. To determine the enzymatic activity and its inhibition, the accumulated Ang I was detected by an enzyme immunoassay (EIA) in 384-well plates (Nunc). 5 μL of the incubates or standards were transferred to immuno plates which were previously coated with a covalent complex of Ang I and bovine serum albumin (Ang I—BSA). 75 μL of Ang I-antibodies in essaybuffer above including 0.01% Tween 20 were added and a primary incubation made at 4° C. overnight. The plates were washed 3 times with PBS including 0.01% Tween 20, and then incubated for 2 h at rt with an antirabbit-peroxidase coupled antibody (WA 934, Amersham).
row,Compound,IC50 [pM]
1,"Cc1c(CN(C(=O)C2=C(c3ccc(CCCOc4c(F)ccc(F)c4Cl)cc3)C[C@@H]3CNC[C@H]2N3)C2CC2)ccnc1OCCCO (racemic) [Example 1, (rac.)-(1R*, 5S*)-7-{4-[3-(2-Chloro-3,6-difluorophenoxy)propyl]phenyl}-3,9-diazabicyclo[3.3.1]non-6-ene-6-carboxylic Acid Cyclopropyl-[2-(3-hydroxy-propoxy)-3-methylpyridin-4-ylmethyl]amide]",1160
2,"Cc1cc(Cl)c(OCCOc2ccc(C3=C(C(=O)N(Cc4ccnc(OCCCO)c4C)C4CC4)[C@H]4CNC[C@@H](C3)N4)cc2)c(Cl)c1 (racemic) [Example 2, (rac.)-(1R*, 5S*)-7-{4-[2-(2,6-Dichloro-4-methylphenoxy)ethoxy]phenyl}-3,9-diazabicyclo[3.3.1]non-6-ene-6-carboxylic Acid Cyclopropyl-[2-(3-hydroxy-propoxy)-3-methylpyridin-4-ylmethyl]amide]",490
3,"Cc1c(CN(C(=O)C2=C(c3ccc(CCCOc4c(F)ccc(F)c4Cl)cc3)C[C@@H]3CNC[C@H]2N3)C2CC2)ccnc1OCCO (racemic) [Example 3, (rac.)-(1R*, 5S*)-7-{4-[3-(2-Chloro-3,6-difluorophenoxy)propyl]phenyl}-3,9-diazabicyclo[3.3.1]non-6-ene-6-carboxylic Acid Cyclopropyl-[2-(2-hydroxy-ethoxy)-3-methylpyridin-4-ylmethyl]amide]",820
4,"Cc1cc(Cl)c(OCCOc2ccc(C3=C(C(=O)N(Cc4ccnc(OCCO)c4C)C4CC4)[C@H]4CNC[C@@H](C3)N4)cc2)c(Cl)c1 (racemic) [Example 4, (rac.)-(1R*, 5S*)-7-{4-[2-(2,6-Dichloro-4-methylphenoxy)ethoxy]phenyl}-3,9-diazabicyclo[3.3.1]non-6-ene-6-carboxylic Acid Cyclopropyl-[2-(2-hydroxy-ethoxy)-3-methylpyridin-4-ylmethyl]amide]",1430
